What all share (format): in vivo
One series deals with Galium spurium. In words: Test Example 5: herbicidal effect by foliage application, plastic box (symbol Q). The following applies: 320 g/ha, 3 weeks after application. In a few lines: (§1)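 Leaf-applied emulsion, water-diluted to a preset herbicide dose, on two-week-old seedlings raised in a 25° C. to 30° C. greenhouse; injury rated at 3 weeks using earlier criteria.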
A further series has as its system Apera spica-venti. In words: Test Example 5: herbicidal effect by foliage application, plastic box (symbol L). The following applies: 320 g/ha, 3 weeks after application. In short, it runs like this: as §1
Another series concerns Monochoria vaginalis. In words: Test Example 1: herbicidal activity, application before weed generation in submerged conditions (symbol C). The following applies: application herbicide amount 320 g/ha. In a few lines: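 Mixed weed seeds sown in alluvial soil under 4 cm of water, with rice seedlings at the 2.5-leaf stage added. Same-day treatment: emulsion diluted to a set herbicide amount onto the water. Three weeks at 25–30 °C, then graded on a six-step scale.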

The next series deals with Digitaria ciliaris. In words: Test Example 4: herbicidal effect by soil treatment (symbol F). In a few lines:
(§2)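 Seeds were sown in sterilized diluvial soil, covered with about 1.5 cm of soil, and the soil surface was sprayed with a water-diluted emulsion of the compound at a predetermined rate. Plants grew in a greenhouse at 25° C. to 30° C.; effects were scored visually 3 weeks after application.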

For a further series, the system named is Amaranthus retroflexus. In words: Test Example 5: herbicidal effect by foliage application, plastic box (symbol N). The following applies: 320 g/ha, 3 weeks after application. In short, it runs like this: as §1
For the next series, the system named is corn. In words: Test Example 5: effect on crop by foliage application, plastic box (symbol c). The following applies: 320 g/ha, 3 weeks after application. In a few lines:
(§3)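 Diluvial soil, sterilized and boxed (21 × 13 × 7 cm), received spot-sown seed covered by about 1.5 cm soil; plants were then greenhouse-grown at 25–30° C.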

The subject of the next series is Abutilon theophrasti. In words: Test Example 5: herbicidal effect by foliage application, plastic box (symbol M). The following applies: 320 g/ha, 3 weeks after application. In short, it runs like this: as §1
For the next series, the system named is rapeseed. In words: Test Example 5: effect on crop by foliage application, plastic box (symbol g). The following applies: 320 g/ha, 3 weeks after application. In short, it runs like this:
as §3

In another series the test system is Setaria viridis. In words: Test Example 4: herbicidal effect by soil treatment (symbol G). The following applies: application herbicide amount 320 g/ha. In short, it runs like this: as §2
For the next series, the system named is soybean. In words: Test Example 5: effect on crop by foliage application, plastic box (symbol d). The following applies: 320 g/ha, 3 weeks after application. In short, it runs like this:
as §3

For the next series, the system named is beet. In words: Test Example 5: effect on crop by foliage application, plastic box (symbol f). The following applies: 320 g/ha, 3 weeks after application. In a few lines:
as §3

The subject of series [1] is Echinochloa oryzacola Vasing. In words: Test Example 2: herbicidal activity, application during weed generation in submerged conditions (symbol A). The following applies: Table 23; application herbicide amount 320 g/ha; grade 0-5 by criteria of Test Example 1. In short, it runs like this:
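Flooded-soil post-emergence test: emulsion of compound, water-diluted to target rate, applied to paddy water surface at 1–2 leaf stage of mixed-sown weeds (alluvial soil, 4 cm water, 25–30° C. greenhouse); visual rating 3 weeks after application.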

The subject of the next series is Leptochloa chinensis. In words: Test Example 3: herbicidal effect by foliage application, Wagner pot (symbol D). The following applies: application herbicide amount 320 g/ha. In a few lines: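 Rating at 3 weeks post-spray, by defined criteria. Treatment: emulsion diluted with water to a predetermined amount, applied evenly to foliage of 14-day-old plants raised in alluvial soil flooded 0.1–0.5 cm deep at 25–30 °C, rice co-sown.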

Series [2] deals with Chenopodium album. In words: Test Example 4: herbicidal effect by soil treatment (symbol O). In short, it runs like this: as §2
Series [3] deals with Chenopodium album. In words: Test Example 5: herbicidal effect by foliage application, plastic box (symbol O). The following applies: 320 g/ha, 3 weeks after application. In short, it runs like this:
as §1

Setting [4] is: application herbicide amount 320 g/ha.

`CC(=O)CC1CC(OC(=O)C(C)(C)C)=C(c2c(C)cc(C)cc2C)C1=O` (stereo not shown) [2-018]: the “Q: Galium spurium, herbicidal effect grade” value in the series with Galium spurium is reported as 0 (Herbicidal ratio of 5% or lower (almost no effect)). Also, the “L: Apera spica-venti, herbicidal effect grade” value with Apera spica-venti is 1 (Herbicidal ratio of 5% or higher and lower than 20%). In the series on Monochoria vaginalis, the “Herbicidal effect grade, C: Monochoria vaginalis” value (from here on “Herbicidal effect grade, C”) was 1 (Herbicidal ratio of 5% or higher and lower than 20%). Further, the “F: Digitaria ciliaris, herbicidal effect grade” value (“F: Digitaria ciliaris” for short) in the series on Digitaria ciliaris (setting [4]) is on record as 5 (Herbicidal ratio of 90% or more (almost completely withered)). In the series on Amaranthus retroflexus, the “N: Amaranthus retroflexus, herbicidal effect grade” value is 0 (Herbicidal ratio of 5% or lower (almost no effect)). Moreover, in the series on corn, the “c: corn, effect on crop grade” value is recorded as 0 (Herbicidal ratio of 5% or lower (almost no effect)). Moreover, the “M: Abutilon theophrasti, herbicidal effect grade” value with Abutilon theophrasti is 0 (Herbicidal ratio of 5% or lower (almost no effect)). The “g: rapeseed, effect on crop grade” value in the series with rapeseed is reported as 0 (Herbicidal ratio of 5% or lower (almost no effect)). Besides, in the series on Setaria viridis, the “G: Setaria viridis, herbicidal effect grade” value (“G: Setaria viridis” below) is 5 (Herbicidal ratio of 90% or more (almost completely withered)). Also, the “d: soybean, effect on crop grade” value with soybean is 0 (Herbicidal ratio of 5% or lower (almost no effect)). Also, the “f: beet, effect on crop grade” value with beet is recorded as 0 (Herbicidal ratio of 5% or lower (almost no effect)). Further, in series [1], the “Herbicidal effect grade, A: Echinochloa oryzacola Vasing.” value was 4 (Herbicidal ratio of 70% or higher and lower than 90%). Also, the “herbicidal effect on D (Leptochloa chinensis), grade 0-5” value (from here on “herbicidal effect on D”) in the series on Leptochloa chinensis is 5 (Herbicidal ratio of 90% or more (almost completely withered)). Further, in the series on Chenopodium album [2] (setting [4]), the “O: Chenopodium album, herbicidal effect grade” value is listed as 0 (Herbicidal ratio of 5% or lower (almost no effect)).
As for `CON=C(C)CC1CC(O)=C(c2c(C)cc(C)cc2OC)C1=O` (stereo not shown) [6-037, 3-hydroxy-2-(2-methoxy-4,6-dimethylphenyl)-5-{2-(methoxyimino)propyl}cyclopent-2-enone], in the series with Apera spica-venti, the “L: Apera spica-venti, herbicidal effect grade” value is on record as 5 (Herbicidal ratio of 90% or more (almost completely withered)). Moreover, in the series on Monochoria vaginalis, the “Herbicidal effect grade, C” value was 4 (Herbicidal ratio of 70% or higher and lower than 90%). For the same molecule, the “F: Digitaria ciliaris” value in the series with Digitaria ciliaris (setting [4]) is 5 (Herbicidal ratio of 90% or more (almost completely withered)). For the same molecule, in the series with Amaranthus retroflexus, the “N: Amaranthus retroflexus, herbicidal effect grade” value was 5 (Herbicidal ratio of 90% or more (almost completely withered)). For the same molecule, the “c: corn, effect on crop grade” value in the series on corn is on record as 5 (Herbicidal ratio of 90% or more (almost completely withered)). The “M: Abutilon theophrasti, herbicidal effect grade” value with Abutilon theophrasti is 5 (Herbicidal ratio of 90% or more (almost completely withered)). Also, the “g: rapeseed, effect on crop grade” value with rapeseed is recorded as 5 (Herbicidal ratio of 90% or more (almost completely withered)). Further, in the series on Setaria viridis, the “G: Setaria viridis” value is 5 (Herbicidal ratio of 90% or more (almost completely withered)). Besides, the “d: soybean, effect on crop grade” value in the series on soybean is 4 (Herbicidal ratio of 70% or higher and lower than 90%). Further, the “f: beet, effect on crop grade” value with beet was 3 (Herbicidal ratio of 40% or higher and lower than 70%). The “Herbicidal effect grade, A: Echinochloa oryzacola Vasing.” value in series [1] was 5 (Herbicidal ratio of 90% or more (almost completely withered)). The “O: Chenopodium album, herbicidal effect grade” value was 3 (Herbicidal ratio of 40% or higher and lower than 70%) in the series on Chenopodium album [3]; 0 (Herbicidal ratio of 5% or lower (almost no effect)) in the series with Chenopodium album [2] (setting [4]). For the same molecule, the “herbicidal effect on D” value in the series with Leptochloa chinensis is recorded as 5 (Herbicidal ratio of 90% or more (almost completely withered)).
In the case of `CON=C(C)CC1CC(OC(=O)N2CCCCC2)=C(c2c(C)cc(C)cc2C)C1=O` (stereo not shown) [1-151], in the series with Galium spurium, the “Q: Galium spurium, herbicidal effect (criteria 0-5)” value was 0 (Herbicidal ratio of 5% or lower (almost no effect)). In the series with Apera spica-venti, the “L: Apera spica-venti, herbicidal effect (criteria 0-5)” value was 5 (Herbicidal ratio of 90% or more (almost completely withered)). Further, in the series with Monochoria vaginalis, the “Herbicidal effect grade, C” value is 0 (Herbicidal ratio of 5% or lower (almost no effect)). In addition, the “F: Digitaria ciliaris” value in the series on Digitaria ciliaris (320 g/ha) was 5 (Herbicidal ratio of 90% or more (almost completely withered)). The “N: Amaranthus retroflexus, herbicidal effect (criteria 0-5)” value in the series on Amaranthus retroflexus was 0 (Herbicidal ratio of 5% or lower (almost no effect)). The “c: corn, effect on crop (criteria 0-5)” value in the series with corn is 4 (Herbicidal ratio of 70% or higher and lower than 90%). Also, in the series with Abutilon theophrasti, the “M: Abutilon theophrasti, herbicidal effect (criteria 0-5)” value is 3 (Herbicidal ratio of 40% or higher and lower than 70%). The “g: rapeseed, effect on crop (criteria 0-5)” value with rapeseed was 4 (Herbicidal ratio of 70% or higher and lower than 90%). Moreover, the “d: soybean, effect on crop (criteria 0-5)” value in the series on soybean is 2 (Herbicidal ratio of 20% or higher and lower than 40%). Moreover, the “f: beet, effect on crop (criteria 0-5)” value with beet is 2 (Herbicidal ratio of 20% or higher and lower than 40%). In addition, the “Herbicidal effect grade, A: Echinochloa oryzacola Vasing.” value in series [1] is 5 (Herbicidal ratio of 90% or more (almost completely withered)). Moreover, in the series with Chenopodium album [3], the “O: Chenopodium album, herbicidal effect (criteria 0-5)” value is recorded as 0 (Herbicidal ratio of 5% or lower (almost no effect)). Further, in the series with Leptochloa chinensis, the “herbicidal effect on D” value is 4 (Herbicidal ratio of 70% or higher and lower than 90%). In the series on Chenopodium album [2] (320 g/ha), the “O: Chenopodium album, herbicidal effect grade” value is 0 (Herbicidal ratio of 5% or lower (almost no effect)).
As for `CON=C(C)CC1CC(O)=C(c2c(C)cc(C(C)=O)cc2C)C1=O` (stereo not shown) [6-026], in the series on Galium spurium, the “Q: Galium spurium, herbicidal effect grade” value is reported as 0 (Herbicidal ratio of 5% or lower (almost no effect)). Moreover, the “L: Apera spica-venti, herbicidal effect grade” value in the series on Apera spica-venti was 3 (Herbicidal ratio of 40% or higher and lower than 70%). Moreover, in the series on Monochoria vaginalis, the “Herbicidal effect grade, C” value was 0 (Herbicidal ratio of 5% or lower (almost no effect)). The “F: Digitaria ciliaris” value in the series on Digitaria ciliaris (setting [4]) was 4 (Herbicidal ratio of 70% or higher and lower than 90%). Also, the “N: Amaranthus retroflexus, herbicidal effect grade” value in the series with Amaranthus retroflexus was 0 (Herbicidal ratio of 5% or lower (almost no effect)). Moreover, the “c: corn, effect on crop grade” value in the series with corn is reported as 5 (Herbicidal ratio of 90% or more (almost completely withered)). Besides, in the series with Abutilon theophrasti, the “M: Abutilon theophrasti, herbicidal effect grade” value is 0 (Herbicidal ratio of 5% or lower (almost no effect)). For the same molecule, the “g: rapeseed, effect on crop grade” value with rapeseed was 3 (Herbicidal ratio of 40% or higher and lower than 70%). In addition, the “G: Setaria viridis” value in the series on Setaria viridis was 4 (Herbicidal ratio of 70% or higher and lower than 90%). Moreover, in the series on soybean, the “d: soybean, effect on crop grade” value was 0 (Herbicidal ratio of 5% or lower (almost no effect)). Further, the “f: beet, effect on crop grade” value in the series with beet is on record as 0 (Herbicidal ratio of 5% or lower (almost no effect)). Moreover, the “O: Chenopodium album, herbicidal effect grade” value with Chenopodium album [3] and in the series on Chenopodium album [2] (setting [4]) was 0 (Herbicidal ratio of 5% or lower (almost no effect)) in each case. Moreover, the “herbicidal effect on D” value in the series with Leptochloa chinensis is given as 5 (Herbicidal ratio of 90% or more (almost completely withered)).
For `CCOC(=O)C(C(=O)CC1CC1)C1CC(O)=C(c2c(C)cc(C)cc2C)C1=O` (stereo not shown) [2-025], the “Q: Galium spurium, herbicidal effect grade” value in the series on Galium spurium is 0 (Herbicidal ratio of 5% or lower (almost no effect)). Also, the “L: Apera spica-venti, herbicidal effect grade” value in the series on Apera spica-venti was 3 (Herbicidal ratio of 40% or higher and lower than 70%). Moreover, the “Herbicidal effect grade, C” value with Monochoria vaginalis is listed as 0 (Herbicidal ratio of 5% or lower (almost no effect)). The “F: Digitaria ciliaris” value with Digitaria ciliaris (setting [4]) is 4 (Herbicidal ratio of 70% or higher and lower than 90%). For the same molecule, the “N: Amaranthus retroflexus, herbicidal effect grade” value in the series on Amaranthus retroflexus was 0 (Herbicidal ratio of 5% or lower (almost no effect)). Also, the “c: corn, effect on crop grade” value in the series on corn was 1 (Herbicidal ratio of 5% or higher and lower than 20%). Also, in the series on Abutilon theophrasti, the “M: Abutilon theophrasti, herbicidal effect grade” value is 0 (Herbicidal ratio of 5% or lower (almost no effect)). For the same molecule, the “g: rapeseed, effect on crop grade” value in the series with rapeseed was 3 (Herbicidal ratio of 40% or higher and lower than 70%). The “G: Setaria viridis” value with Setaria viridis is reported as 5 (Herbicidal ratio of 90% or more (almost completely withered)). Further, in the series on soybean, the “d: soybean, effect on crop grade” value is recorded as 0 (Herbicidal ratio of 5% or lower (almost no effect)). In addition, the “f: beet, effect on crop grade” value in the series on beet is listed as 0 (Herbicidal ratio of 5% or lower (almost no effect)). For the same molecule, the “O: Chenopodium album, herbicidal effect grade” value in the series on Chenopodium album [3] and with Chenopodium album [2] (setting [4]) was 0 (Herbicidal ratio of 5% or lower (almost no effect)) throughout. For the same molecule, the “herbicidal effect on D” value with Leptochloa chinensis was 1 (Herbicidal ratio of 5% or higher and lower than 20%).

The record behind these values is patent US11000033B2, “Ketone or oxime compound, and herbicide” (NISSAN CHEMICAL CORPORATION, priority 2014, dated 2021).
